According to paper PMC12254266, “Multicolored sequential resonance energy transfer for detection of simultaneous ligand binding at G protein-coupled receptors” (Nature Communications, 2025):
Several values for one entry are separate records, joined by “and”; a condition that tells them apart may be missing. Equal values may be shown once. Read-outs that look alike come from different tables or passages of the source. Blank lines part the entries; values can stand above or below the compound they belong to.

How the values were obtained:
FFA1-Nluc = FFA1-Nluc (Homo sapiens, UniProt O14842); assay: Bystander BRET internalisation assay, FFA1-Nluc in HEK293T cells; type: cell-based; design: expressed in transfected cells; host or cells: HEK293T (ATCC, CRL-3216), transient; details: in words; up to 60 min
Chain of FFA1-Nluc (O14842 whole entry): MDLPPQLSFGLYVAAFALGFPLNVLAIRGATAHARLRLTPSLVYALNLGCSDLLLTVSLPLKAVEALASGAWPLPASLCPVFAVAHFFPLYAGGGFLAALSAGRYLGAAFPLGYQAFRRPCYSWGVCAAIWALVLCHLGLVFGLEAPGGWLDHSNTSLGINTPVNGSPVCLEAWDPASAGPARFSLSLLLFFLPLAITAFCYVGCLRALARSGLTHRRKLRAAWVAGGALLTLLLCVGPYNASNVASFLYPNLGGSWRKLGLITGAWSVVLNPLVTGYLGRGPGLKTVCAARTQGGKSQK
Description: Cells were transfected using a reverse transfection protocol while plating into a poly-D-lysine coated white 96-well plates. Cells were plated at 60,000 cells with 100 ng of plasmid DNA and 0.6 µg of polyethyleneimine (PEI) per well. Cells were cultured for 24 h before washing with HBSS and incubating in HBSS at 37 °C for 30 min. NanoGlo substrate was added a final 1:800 dilution and plates incubated for 10 min at 37 °C. […] After 5 min of baseline measurements, readings were paused and test compounds added to the plate.

Nluc-FFA1 = biological target: T1, Nluc-FFA1 (Homo sapiens, UniProt O14842); assay: NanoBRET binding (saturation, competition, kinetics) at N terminal Nluc tagged FFA1; details: for Specific BRET (690/450)%: Figure 4Ci; for Specific BRET (690/450)% / Specific BRET (540/450)%: technical duplicates; for Specific BRET (540/450)%: Figure 4Cii
T1 construct: expressed in transfected cells
T1 sequence (O14842 whole entry): as above

FFA1 = FFA1 (Homo sapiens, UniProt O14842); assay: NanoBiT arrestin-3 recruitment in HEK293T cells; type: cell-based; design: expressed in transfected cells; host or cells: HEK293T, transient; details: for EMax (% TUG-905) arrestin-3 recruitment: percentage of the response to 10 μM TUG-905; for EMax (% TUG-905) arrestin-3 recruitment / pEC50 arrestin-3 recruitment: ± SEM; for pEC50 arrestin-3 recruitment: N=3; for Arrestin recruitment (% TUG-905): technical duplicate
Chain of FFA1 (O14842 whole entry): as above
Description: For arrestin-3 recruitment assays, HEK293T cells were transfected with FFA1 receptor and a bystander NanoBiT split luciferase arrestin-3 recruitment biosensor. Cells were transfected and plated simultaneously in a reverse transfection protocol into a poly-D-lysine coated white 96-well plate. Per well, 60,000 cells were transfected with 5 ng plasmid expressing LgBiT with a N-terminal Lyn11 plasma membrane localisation tag, 5 ng plasmid expressing bovine arrestin-3 fused at its N-terminal to SmBiT tag and 30 ng plasmid expressing the human FFA1 receptor. Total DNA was made up to 100 ng total/well with empty pcDNA3 vector and transfected to cell suspension with 0.6 µg/well PEI. Following transfection cells were cultured for 24 h before use. On the day of assay, cells were washed twice with HBSS and incubated in HBSS for 30 min at 37 °C. NanoGlo substrate was added at a final 1:800 dilution and incubated in the dark for 10 min at 37 °C. […] Raw luminescence values were divided by baseline signal (average of first 5 data points prior to compound addition) and vehicle measurements subtracted from agonist treatment. Area under curves were calculated and concentration response curves plotted.

[1] = Nluc-FFA1, multiple concentration of labelled ligand association model

internalization of FFA1-Nluc (FFA1-Nluc): No internalization
Kd (Nluc-FFA1; Nluc-FFA1, 95% confidence interval in parentheses, read-out: Kd, saturation BRET binding): 0.39 µM
Specific BRET (540/450) Ratio (Nluc-FFA1; Nluc-FFA1, [TUG-2597] 550 nM): 0.0530 and 0.0471 and 0.0466
kOn Nano-BRET (Nluc-FFA1; Nluc-FFA1, association then dissociation model): 58333.33 M⁻¹ s⁻¹
kOff Nano-BRET (Nluc-FFA1; Nluc-FFA1, association then dissociation model, TUG-2591 100 nM then TUG-905 10 μM, or TUG-2597 […] then T360 10 μM): 0.00633 s⁻¹
Kd (Nluc-FFA1; Nluc-FFA1, association then dissociation model, read-out: Kd Nano-BRET (kinetic)): 0.11 µM
kOff Nano-BRET Multiple Concentration (Nluc-FFA1; [1]): 0.0065 s⁻¹
kOn Nano-BRET Multiple Concentration (Nluc-FFA1; [1]): 12000 M⁻¹ s⁻¹
Kd (Nluc-FFA1; Nluc-FFA1, read-out: Kd Nano-BRET Multiple Concentration (kinetic)): 0.54 µM
kOff Nano-BRET Allosterism, Nluc-FFA1 (Nluc-FFA1; TUG-2591 (1 μM) in the presence of T360 (30μM), TUG-2597 (1 μM) in the presence of TUG-905 (30μM), 95% CI in parentheses): 0.20 (0.195-0.203) min-1
Kd (Nluc-FFA1; footnotes of Supplementary Table 3, read-out: Kd values obtained in NanoBRET saturation experiments (used for pKi) (converted)): 0.38 µM
Kd (Nluc-FFA1; using either Nluc location (N or C terminal), read-out: Kd, saturation NanoBRET): 0.35 to 0.44 µM
EMax (% TUG-905) arrestin-3 recruitment (FFA1): 60 ± 6%
pEC50 arrestin-3 recruitment (FFA1): 8.5 ± 0.3
SMILES: COc1ccc(C(=O)N(CC(C)(C)CNc2ccc([N+](=O)[O-])c3nonc23)c2cccc(C)n2)c(N2CCC(COc3cccc(C(CC(=O)O)C4CC4)c3)CC2)c1.O=C(O)C(F)(F)F (stereo not drawn) [TUG-2597]
Specific BRET (Nluc-FFA1; Nluc-FFA1 (Fig 1F), percentage of the maximal signal, [TUG-2597] 550 nM): 73.921% and 62.249% and 55.324% and 54.737% and 83.741% and 100.190%
Specific BRET (540/450) Ratio (Nluc-FFA1; Nluc-FFA1, [TUG-2597] 100 nM): 0.0112 and 0.0100 and 0.0162 and 0.0091 and 0.0128 and 0.0161
Specific BRET (540/450) Ratio (Nluc-FFA1; Nluc-FFA1, [TUG-2597] 1000 nM): 0.0547 and 0.0609 and 0.0560 and 0.0683 and 0.0664 and 0.0577

'bottom' of the IC50 curve fit, Nano-BRET TUG-2591 (Nluc-FFA1; percentage of binding in the absence of competing ligand, tracer TUG-2591 100 nM): 160%
'bottom' of the IC50 curve fit, Nano-BRET TUG-2597 (Nluc-FFA1; percentage of binding in the absence of competing ligand, tracer TUG-2597 […]): -16%
pIC50 Nano-BRET TUG-2597 (Nluc-FFA1; tracer TUG-2597 […], NBD/Nluc): 7.2±0.03
pKi Nano-BRET TUG-2597 (Nluc-FFA1; using Kd TUG-2597 380 nM): 7.5±0.03
EMax (% TUG-905) arrestin-3 recruitment (FFA1): 54 ± 6%
pEC50 arrestin-3 recruitment (FFA1): 9.1 ±0.1
SMILES: COc1ccc(C(=O)N(CC(C)(C)C)c2cccc(C)n2)c(N2CCC(COc3cccc(C(CC(=O)O)C4CC4)c3)CC2)c1.O=C(O)C(F)(F)F (stereo not drawn) [Cpd 6h, reference compound]
Specific BRET (690/450)% (Nluc-FFA1; log[Ligand] -5): 154.01% and 159.82% and 184.44% and 164.18% and 149.89% and 140.91%
Specific BRET (690/450)% (Nluc-FFA1; log[Ligand] -5.5): 149.18% and 149.96% and 186.01% and 169.50% and 140.81% and 140.26%
Specific BRET (690/450)% (Nluc-FFA1; log[Ligand] -6): 148.97% and 147.78% and 172.23% and 173.39% and 141.21% and 145.62%
Specific BRET (690/450)% (Nluc-FFA1; log[Ligand] -6.5): 146.95% and 143.16% and 174.27% and 175.78% and 147.71% and 149.19%
Specific BRET (690/450)% (Nluc-FFA1; log[Ligand] -7): 142.54% and 138.75% and 174.07% and 180.89% and 144.33% and 137.24%
Specific BRET (690/450)% (Nluc-FFA1; log[Ligand] -8): 121.15% and 120.06% and 152.10% and 144.46% and 121.71% and 120.62%
Specific BRET (690/450)% (Nluc-FFA1; log[Ligand] -9): 105.22% and 101.22% and 121.39% and 115.73% and 104.79% and 106.52%
Specific BRET (690/450)% (Nluc-FFA1; log[Ligand] -10): 100.55% and 99.45% and 103.65% and 96.35% and 96.40% and 103.60%
Specific BRET (540/450)% (Nluc-FFA1; log[Ligand] -7): 19.25% and 26.02% and 25.79% and 30.80% and 33.39% and 36.04%
Specific BRET (540/450)% (Nluc-FFA1; log[Ligand] -8): 119.18% and 117.93% and 79.82% and 76.64% and 93.10% and 100.29%
Specific BRET (540/450)% (Nluc-FFA1; log[Ligand] -9): 109.78% and 127.71% and 86.42% and 90.20% and 105.18% and 118.46%
Specific BRET (540/450)% (Nluc-FFA1; log[Ligand] -10): 94.36% and 105.64% and 98.39% and 101.61% and 82.28% and 117.72%
Arrestin recruitment (% TUG-905) (FFA1; log[ligand] -6): 78.0249 % TUG-905 and 64.444 % TUG-905 and 40.7503 % TUG-905 and 51.9792 % TUG-905 and 61.8079 % TUG-905 and 63.543 % TUG-905
Arrestin recruitment (% TUG-905) (FFA1; log[ligand] -6.5): 82.3608 % TUG-905 and 53.7805 % TUG-905 and 51.6658 % TUG-905 and 54.0552 % TUG-905 and 67.7023 % TUG-905 and 49.6983 % TUG-905
Arrestin recruitment (% TUG-905) (FFA1; log[ligand] -7.5): 66.0536 % TUG-905 and 57.1103 % TUG-905 and 48.5714 % TUG-905 and 47.0829 % TUG-905 and 58.219 % TUG-905 and 65.2186 % TUG-905
Arrestin recruitment (% TUG-905) (FFA1; log[ligand] -8): 69.0414 % TUG-905 and 63.7801 % TUG-905 and 51.8356 % TUG-905 and 46.0645 % TUG-905 and 48.8783 % TUG-905 and 52.0275 % TUG-905
